From ChEMBL document CHEMBL4007388, “Synthesis and antiproliferative activity of monocationic arylthiophene derivatives” (Eur J Med Chem, 2017) come the findings set out here.

Experiment [1] is described as follows: Antioxidant activity assessed as superoxide dismutase-like activity by measuring inhibition of superoxide radical anion production at 2 uM by NBT reduction assay relative to control. The format is functional.
Experiment [2] can be described thus: Growth inhibition of human NCI60 cells at 10 uM after 48 hrs by SRB assay relative to control; values are per cent of control. As to conditions: NCI60, 48 h.
Experiment [3] has as its system Escherichia coli. Kind of experiment: Induction of Escherichia coli genomic DNA cleavage after 1 hr by agarose gel electrophoresis method.
Experiment [4] deals with WI-38. Kind of experiment: Cytotoxicity against human WI38 cells assessed as reduction in cell viability after 24 hrs by MTT assay. The experiment is classed as cell-based. The following applies: WI-38, 24 h.
In experiment [5] the test system is WISH. Kind of experiment: Cytotoxicity against human WISH cells assessed as reduction in cell viability after 24 hrs by MTT assay. The experiment is classed as cell-based.

As for `COc1ccc(-c2ccc(-c3ccc(C#N)c(F)c3)s2)cc1`, the inhibition in experiment [1] turned out to be 35%.

With `N=C(N)c1ccc(-c2ccc(-c3cccs3)s2)cc1` [4-(2,2'-BITHIOPHENE-5-YL)BENZAMIDINE], the growth percent at 10 µM in experiment [2] worked out at 83.9%.

`N#Cc1ccc(-c2ccc(-c3ccccc3)s2)cc1F`: in experiment [1], the inhibition was found to be 37.9%.

In the case of `CN(C)c1ccc(-c2ccc(-c3ccc(C(=N)N)c(F)c3)s2)cc1`, the inhibition in experiment [1] was 56.7%. In addition, in experiment [3], the Activity result was “Dose-dependent effect”.

For the molecule `CN(C)c1ccc(-c2ccc(-c3ccc(C(=N)N)cc3)s2)cc1`, in experiment [1], the inhibition was 58%. For the same molecule, the Activity entry in experiment [3] is “Dose-dependent effect”.

Take `N#Cc1ccc(-c2ccc(-c3ccc(Cl)cc3)s2)cc1F`: the inhibition in experiment [1] was determined as 35.3%.

Consider `O=c1[nH]cc(F)c(=O)[nH]1` [FLUOROURACIL], for which the IC50 in experiment [4] stood at 9.3 µM; in experiment [5], 7.1 µM.

In the case of `N=C(N)c1ccc(-c2ccc(-c3cccs3)s2)cc1F`, the growth percent at 10 µM in experiment [2] was -72.5%.
